Read-outs that look alike come from different tables or passages of the source.
Key:
APE1 [1] = target: T1, APE1 (Homo sapiens, UniProt P27695); assay: APE1 endonuclease activity: incision of depurinated plasmid (pUC18) DNA; format: biochemical; set-up: the full length APE1 protein was successfully expressed and purified; made in house; host or cells: E. coli BL21/DE3
Experimental: APE1 endonuclease activity was determined using an assay that measures the conversion of plasmid DNA from supercoiled to relaxed form by incision at an abasic site [35]–[36]. Briefly, the substrate used was 200 ng of depurinated pUC18 DNA in 10 µl of 1× APE1 buffer containing 50 mM Hepes, pH 7.4, 150 mM KCl, 5 mM MgCl2 and 100 µg/ml of BSA in presence of different concentrations of the cell extract (1 µl containing 0–55 ng of total protein). Similar reactions mixtures were set up with untreated pUC18, which served as the internal control. This reaction mixture was incubated at 37°C for 15 min, and the reaction was stopped by addition of alkaline stop mix (0.25% bromocresol green in 0.25N NaOH, 50% glycerol) and left at room temperature for 10–15 min. Then the products were resolved on a 0.8% agarose gel in 40 mM Tris-acetate and 2 mM EDTA for 2 h. The gel was stained with ethidium bromide to visualize supercoiled and relaxed plasmid DNA and imaged with a digital imaging system and the area under the supercoiled and relaxed form was determined. Final calculations were done in femtomoles (fmol) of abasic sites incised/min/mg protein with normalization done using Pyruvate Kinase units (PKU) present in these extracts. Poisson distribution calculations were done on supercoiled and relaxed bands to estimate incisions per plasmid molecule and the resulting depurinated pUC18 had 1 AP site per molecule. The endonuclease activity inhibition by lucanthone was analyzed using standard Lineweaver-Burke Plot to determine if the inhibition was competitive or non-competitive.

APE1 [2] = target: T1, APE1; assay: MALDI-TOF analysis of APE1 degradation; set-up: the full length APE1 protein was successfully expressed and purified; made in house; host or cells: E. coli BL21/DE3; conditions: 100 µM drug; for APE1 protein fragments by MALDI-TOF / Full length 35.5 kDa APE1 peak by MALDI-TOF: 37°C; for APE1 protein fragments by MALDI-TOF: 2 or 24 h; for Full length 35.5 kDa APE1 peak by MALDI-TOF: 24 h
Experimental: 100 nM of APE1 protein was treated with 100 µM of lucanthone, hycanthone or CRT at 37°C for 2 h and 24 h and analyzed on sinipinic acid matrix on a Voyager-DE STR (Applied Biosystems) MALDI-TOF instrument at the Proteomics facility at SUNYSB in a linear mode.

APE1 [3] = target: T1, APE1; assay: Far UV circular dichroism of APE1 with drug (CDSSTR/DICHROWEB); set-up: the full length APE1 protein was successfully expressed and purified; made in house; host or cells: E. coli BL21/DE3; Helix 1 / Helix 2 / Strand 1 / Strand 2 / Turns / Unordered: unit not given here; conditions: APE1 plus drug (1 mg/ml, 50 µl), 37°C, 60 min
Experimental: APE1 and its mutant proteins (10 mg/ml), 50 µl (500 µg) (14 µM) in APE1 buffer (50 mM HEPES, pH 7.4, 150 mM KCl, 5 mM MgCl2), were mixed with lucanthone/hycanthone (1 mg/ml), 50 µl (50 µg), 140 µM and incubated at 37°C for 60 min and far UV-CD spectra were recorded at NSLS U11 beam line at BNL. Lucanthone and hycanthone were also scanned as drug controls. The scanning parameters used were a 0.001 cm path length quartz cell, scanning wavelengths from 260 to 170 nm, bandwidth of 0.5 nm, digital integration time of 1 s, time constant of 200 ms, step size of 1 nm, and sensitivity of 200 µV. The data were corrected with blank subtraction from APE1 buffer alone. The secondary structure for APE1 with or without lucanthone or hycanthone was analyzed using CDSSTR program DICHROWEB [38].

APE1 [4] = target: T1, APE1; assay: APE1 expression and cleavage in U251 1-5 overexpressor cells pretreated with cycloheximide, Western blot; format: cell-based; conditions: for Cleavage of APE1 (25 kDa fragment): 10 µg/ml cycloheximide 4 h, then 25-100 µM drug 2 h
Experimental: Total purified protein concentration was determined by the ratio of A280/A260. 250 ng of APE1 treated with lucanthone or hycanthone (0.05–100 µM) for 2 h at 37°C in final volume of 30 µl were mixed with an equal volume of gel loading buffer (0.001% bromophenol blue, 4% SDS, 10% 2-ME, 20% glycerol, and 125 mM Tris pH 6.8) and denatured at 95°C for 5 min. Total protein concentration in cell extracts was determined using the Bradford assay (BioRad, Hercules, CA) and 25 µg of total protein from soluble or insoluble cell fractions were mixed with an equal volume of gel loading buffer (0.001% bromophenol blue, 4% SDS, 10% 2-ME, 20% glycerol, and 125 mM Tris pH 6.8) and denatured at 95°C for 5 min. This mixture was separated by SDS-PAGE (4% stacking, 7.5% resolving gel) for 2–3 h at 40 mA on a BioRad MiniPROTEAN II Electrophoresis Cell. To detect proteins, proteins were transferred onto a trans-Blot nitrocellulose membrane (0.45 µm; BioRad) overnight at 4°C at 15 mA in standard Tris-Glycine buffer containing 20% ethanol. Membranes were probed using polyclonal anti-APE1 or polyclonal anti-©-tubulin at 1/1,000 dilution in TTBS (0.1% Tween 20 in TBS (pH 7.5)) with secondary, anti-rabbit HRP-conjugated antibody used at 1/30,000 dilution to detect APE1 and ©-tubulin protein control. Chemi-luminescence was developed using an ECL kit according to the manufacturer's instructions and detected by exposing the blot to HyperfilmECL for 30 s–3 min. (GE Healthcare Biosciences, Piscataway, NJ).
Western blotting was carried out by 7.5% SDS-PAGE of cell extracts (20 µg total protein per lane) either from APE1 overexpresser clone 5 pretreated with 2.5–200 µM concentration of lucanthone/CRT0044876 or recombinant APE1 for 2 h at 37°C in presence of protease inhibitor cocktail (2 tablets (Roche, # 11836153001) containing mixture of several protease inhibitors with broad inhibitory specificity for serine, cysteine and metalloproteases in all systems, dissolved in 20 ml of APE1 buffer). […]

T1 sequence (P27695 whole entry): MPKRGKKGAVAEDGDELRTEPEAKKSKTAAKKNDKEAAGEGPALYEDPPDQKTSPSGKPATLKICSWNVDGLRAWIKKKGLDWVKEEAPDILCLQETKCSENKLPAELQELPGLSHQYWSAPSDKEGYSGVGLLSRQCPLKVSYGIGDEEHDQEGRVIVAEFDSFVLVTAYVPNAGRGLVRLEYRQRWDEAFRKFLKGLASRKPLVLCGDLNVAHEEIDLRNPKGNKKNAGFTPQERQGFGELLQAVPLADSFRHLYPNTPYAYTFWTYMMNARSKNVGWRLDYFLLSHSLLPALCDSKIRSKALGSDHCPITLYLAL

## CCN(CC)CCNc1ccc(CO)c2sc3ccccc3c(=O)c12 [hycanthone]
APE1 [1]; read-out: IC50 for inhibition of APE1 incision of depurinated plasmid DNA
  IC50: 80 nM
APE1 [2]
  APE1 protein fragments by MALDI-TOF: cleavage of APE1 as evidenced mainly by 10, 11 and 17 kDa peaks
  Full length 35.5 kDa APE1 peak by MALDI-TOF: almost completely degraded
APE1 [3]
  Av. helix length per segment: 4.020
  Av. strand length per segment: 5.799
  Helix 1: 0.00
  Helix 2: 0.069
  Strand 1: 0.267
  Strand 2: 0.141
  Turns: 0.124
  Unordered: 0.399
APE1 [4]
  Cleavage of APE1 (25 kDa fragment): induce cleavage of APE1

## CCN(CC)CCNc1ccc(C)c2sc3ccccc3c(=O)c12 [lucanthone, 1-[2-diethylaminoethylamino]-4-methylthioxanthen-9-one]
APE1 [1]
  IC50: 5000 nM
  Kinetics (mode) of inhibition, Lineweaver-Burke plot: non-competitive inhibitor
APE1 [1]; 100 µM lucanthone, 2 h, 37°C
  Inhibition of endonuclease activity of wild type APE1: corresponding inhibition of the endonuclease activity
APE1 [1]; 10-50 µM, 37°C, 2 h
  AP endonuclease activity of recombinant APE1: corresponding decrease in AP endonuclease activity
APE1 [2]
  Time at which APE1 degradation is seen by MALDI: ≤ 2 h
  APE1 protein fragments by MALDI-TOF: steady degradation of APE1 into smaller fragments
  Full length 35.5 kDa APE1 peak by MALDI-TOF: almost completely degraded
APE1 [3]
  Av. helix length per segment: 4.053
  Av. strand length per segment: 5.762
  Helix 1: 0.00
  Helix 2: 0.071
  Strand 1: 0.262
  Strand 2: 0.140
  Turns: 0.125
  Unordered: 0.403
APE1 [4]
  Cleavage of APE1 (25 kDa fragment): induce cleavage of APE1
APE1 [4]; 10 µg/ml cycloheximide 4 h pretreatment
  De novo APE1 synthesis: not affected significantly

— PMC3174134, “Lucanthone and Its Derivative Hycanthone Inhibit Apurinic Endonuclease-1 (APE1) by Direct Protein Binding” (PLoS ONE, 2011)
